Assay results taken from patent US9365522B2, “Pyrazole amide derivative” (AMGEN INC., priority 2015, dated 2016).

Biological target: T1, human RORγ-LBD (Homo sapiens, UniProt P51449)
T1 construct: made in house; host or cells: E. coli (BL-21)
T1 sequence (P51449 262-518): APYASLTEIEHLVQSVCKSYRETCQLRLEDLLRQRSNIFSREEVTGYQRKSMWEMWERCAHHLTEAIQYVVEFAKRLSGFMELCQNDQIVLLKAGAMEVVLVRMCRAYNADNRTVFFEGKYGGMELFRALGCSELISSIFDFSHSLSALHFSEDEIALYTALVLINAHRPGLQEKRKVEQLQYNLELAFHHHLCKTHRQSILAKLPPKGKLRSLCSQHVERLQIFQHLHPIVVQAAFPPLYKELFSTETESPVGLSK
Test: ROR gamma coactivator peptide recruitment Alphascreen assay (RORγ-LBD binding to GRIP1 coactivator peptide)
Assay type: biochemical
Conditions: 5 nM human RORγ-LBD, 30 nM 7-β-hydroxycholesterol, 50 nM biotinylated GRIP1 coactivator peptide, overnight incubation at room temperature; read-out: result (pIC50, RORγ coactivator peptide recruitment Alphascreen assay) (converted)
In short: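 Alphascreen proximity read-out after overnight room-temperature incubation, yielding pIC50 from 1-in-2 compound series (2.5% DMSO final). Mixture: 50 nM biotin-GRIP1 peptide, 30 nM 7-β-hydroxycholesterol agonist, 5 nM recombinant 6×His:Flag human RORγ-LBD (aa 262-518), 50 mM HEPES pH 7.4.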

| SMILES | IC50 [nM] |
| --- | --- |
| Cc1cc(Cl)c(C(=O)CN(C[C@@]2(C)CCCO2)C(=O)c2cnn([C@H]3CC[C@](C)(C(=O)O)CC3)c2C(F)(F)F)c(Cl)c1 [Example 726, trans-4-(4-((2-(2,6-dichloro-4-methylphenyl)-2-oxoethyl)(((2R)-2-methyltetrahydro-2-furanyl)methyl)carbamoyl)-5-(trifluoromethyl)-1H-pyrazol-1-yl)-1-methylcyclohexanecarboxylic acid] | 2.75 |
| C[C@@]1(CN(CC(=O)c2c(Cl)cccc2Cl)C(=O)c2cnn([C@H]3CC[C@](C)(C(=O)O)CC3)c2C(F)(F)F)CCCO1 [Example 727, trans-4-(4-((2-(2,6-dichlorophenyl)-2-oxoethyl)(((2S)-2-methyltetrahydro-2-furanyl)methyl)carbamoyl)-5-(trifluoromethyl)-1H-pyrazol-1-yl)-1-methylcyclohexanecarboxylic acid] | 11.7 |
| C[C@]1(CN(CC(=O)c2c(Cl)cccc2Cl)C(=O)c2cnn([C@H]3CC[C@](C)(C(=O)O)CC3)c2C(F)(F)F)CCCO1 [Example 728, trans-4-(4-((2-(2,6-dichlorophenyl)-2-oxoethyl)(((2R)-2-methyltetrahydro-2-furanyl)methyl)carbamoyl)-5-(trifluoromethyl)-1H-pyrazol-1-yl)-1-methylcyclohexanecarboxylic acid] | 4.79 |
| C[C@]1(C(=O)O)CC[C@H](n2ncc(C(=O)N(CC(=O)c3c(Cl)cccc3Cl)CC3(C(F)(F)F)CC3)c2C(F)(F)F)CC1 [Example 729, (1r,4r)-4-(4-((2-(2,6-dichlorophenyl)-2-oxoethyl)((1-(trifluoromethyl)cyclopropyl)methyl)carbamoyl)-5-(trifluoromethyl)-1H-pyrazol-1-yl)-1-methylcyclohexanecarboxylic acid] | 2.4 |
| CC1(CN(CC(=O)c2c(Cl)cncc2Cl)C(=O)c2cnn([C@H]3CC[C@](C)(C(=O)O)CC3)c2C(F)(F)F)CCC1 [Example 730, trans-4-(4-((2-(3,5-dichloro-4-pyridinyl)-2-oxoethyl)((1-methylcyclobutyl)methyl)carbamoyl)-5-(trifluoromethyl)-1H-pyrazol-1-yl)-1-methylcyclohexanecarboxylic acid] | 3.55 |
| Cc1cc(Cl)c(C(=O)CN(CC2(C)CCC2)C(=O)c2cnn([C@H]3CC[C@](C)(C(=O)O)CC3)c2C(F)(F)F)c(Cl)c1 [Example 731, trans-4-(4-((2-(2,6-dichloro-4-methylphenyl)-2-oxoethyl)((1-methylcyclobutyl)methyl)carbamoyl)-5-(trifluoromethyl)-1H-pyrazol-1-yl)-1-methylcyclohexanecarboxylic acid] | 0.933 |
| Cc1cc(Cl)c(C(=O)CN(C(=O)c2cnn([C@H]3CC[C@](C)(C(=O)O)CC3)c2C(F)(F)F)C2CCC(C)(C)CC2)c(Cl)n1 [Example 732, trans-4-(4-((2-(2,4-dichloro-6-methyl-3-pyridinyl)-2-oxoethyl)(4,4-dimethylcyclohexyl)carbamoyl)-5-(trifluoromethyl)-1H-pyrazol-1-yl)-1-methylcyclohexanecarboxylic acid] | 9.12 |
| Cc1cc(Cl)c(C(=O)CN(CC2CCC2)C(=O)c2cnn([C@H]3CC[C@](C)(C(=O)O)CC3)c2C(F)(F)F)c(Cl)c1 [Example 733, trans-4-(4-((cyclobutylmethyl)(2-(2,6-dichloro-4-methylphenyl)-2-oxoethyl)carbamoyl)-5-(trifluoromethyl)-1H-pyrazol-1-yl)-1-methylcyclohexanecarboxylic acid] | 2.51 |
| C[C@]1(C(=O)O)CC[C@H](n2ncc(C(=O)N(CC(=O)c3c(Cl)cncc3Cl)CC3CCC3)c2C(F)(F)F)CC1 [Example 734, trans-4-(4-((cyclobutylmethyl)(2-(3,5-dichloro-4-pyridinyl)-2-oxoethyl)carbamoyl)-5-(trifluoromethyl)-1H-pyrazol-1-yl)-1-methylcyclohexanecarboxylic acid] | 10 |
| C[C@]1(C(=O)O)CC[C@H](n2ncc(C(=O)N(CC(=O)c3c(Cl)cncc3Cl)CC3CCCCC3)c2C(F)(F)F)CC1 [Example 735] | 2.75 |
| C[C@H]1C[C@H](n2ncc(C(=O)N(CC(=O)c3c(Cl)cncc3Cl)CC(C)(C)C)c2C(F)(F)F)CC[C@H]1C(=O)O [Example 738] | 13.5 |
| C[C@@H]1C[C@@H](n2ncc(C(=O)N(CC(=O)c3c(Cl)cncc3Cl)CC(C)(C)C)c2C(F)(F)F)CC[C@@H]1C(=O)O [Example 739] | 5.75 |
| Cc1cc(Cl)c(C(=O)CN(CC(C)(C)C)C(=O)c2cnn([C@H]3CC[C@H](CC(=O)O)CC3)c2C(F)(F)F)c(Cl)n1 [Example 740, (trans-4-(4-((2-(2,4-dichloro-6-methyl-3-pyridinyl)-2-oxoethyl)(2,2-dimethylpropyl)carbamoyl)-5-(trifluoromethyl)-1H-pyrazol-1-yl)cyclohexyl)acetic acid] | 14.5 |
| CCC1(CN(CC(=O)c2c(Cl)cncc2Cl)C(=O)c2cnn([C@H]3CC[C@](C)(C(=O)O)CC3)c2C(F)(F)F)CCC1 [Example 742, trans-4-(4-((2-(3,5-dichloro-4-pyridinyl)-2-oxoethyl)((1-ethylcyclobutyl)methyl)carbamoyl)-5-(trifluoromethyl)-1H-pyrazol-1-yl)-1-methylcyclohexanecarboxylic acid] | 2.63 |
| CC1(C)C[C@H]1CN(CC(=O)c1c(Cl)cncc1Cl)C(=O)c1cnn([C@H]2CC[C@](C)(C(=O)O)CC2)c1C(F)(F)F [Example 743, trans-4-(4-((2-(3,5-dichloro-4-pyridinyl)-2-oxoethyl)(((1S)-2,2-dimethylcyclopropyl)methyl)carbamoyl)-5-(trifluoromethyl)-1H-pyrazol-1-yl)-1-methylcyclohexanecarboxylic acid] | 2.24 |
| CCC1(CN(CC(=O)c2c(Cl)cc(C)cc2Cl)C(=O)c2cnn([C@H]3CC[C@](C)(C(=O)O)CC3)c2C(F)(F)F)CCC1 [Example 744, trans-4-(4-((2-(2,6-dichloro-4-methylphenyl)-2-oxoethyl)((1-ethylcyclobutyl)methyl)carbamoyl)-5-(trifluoromethyl)-1H-pyrazol-1-yl)-1-methylcyclohexanecarboxylic acid] | 0.589 |
| Cc1cc(Cl)c(C(=O)CN(C[C@@H]2CC2(C)C)C(=O)c2cnn([C@H]3CC[C@](C)(C(=O)O)CC3)c2C(F)(F)F)c(Cl)c1 [Example 745, trans-4-(4-((2-(2,6-dichloro-4-methylphenyl)-2-oxoethyl)(((1R)-2,2-dimethylcyclopropyl)methyl)carbamoyl)-5-(trifluoromethyl)-1H-pyrazol-1-yl)-1-methylcyclohexanecarboxylic acid] | 1 |
| CC(C)[C@@H]1C[C@H](Cc2c(Cl)cncc2Cl)N(C(=O)c2cnn([C@H]3CC[C@](C)(C(=O)O)CC3)c2C(F)(F)F)C1 [Example 746, trans-4-(4-(((2R,4S)-2-((3,5-dichloro-4-pyridinyl)methyl)-4-(2-propanyl)-1-pyrrolidinyl)carbonyl)-5-(trifluoromethyl)-1H-pyrazol-1-yl)-1-methylcyclohexanecarboxylic acid] | 32.4 |
| CC(C)[C@H]1C[C@H](Cc2c(Cl)cncc2Cl)N(C(=O)c2cnn([C@H]3CC[C@](C)(C(=O)O)CC3)c2C(F)(F)F)C1 [Example 747, trans-4-(4-(((2R,4R)-2-((3,5-dichloro-4-pyridinyl)methyl)-4-(2-propanyl)-1-pyrrolidinyl)carbonyl)-5-(trifluoromethyl)-1H-pyrazol-1-yl)-1-methylcyclohexanecarboxylic acid] | 3.98 |
